Assays:
Type in all cases: cell-based
[1] = tested on: Citrobacter diversus; experiment: MIC against Gram-negative bacteria: Citrobacter diversus; details: for MIC against C. diversus / MIC C. diversus: 5×10^5 CFU/mL
Outline: (§1)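 Broth microdilution, LB medium, final inoculum 5×10^5 CFU/mL from McFarland 0.5 cultures. Recombinant human EGF domain proteins tested in two-fold steps, n=3. MIC: lowest concentration, no growth.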

[2] = tested on: E. coli BL21; experiment: MIC against Gram-negative bacteria: E. coli BL21; details: for MIC against E. coli BL21 / MIC E. coli BL21: 5×10^5 CFU/mL
Outline: as §1

[3] = tested on: Pseudomonas aeruginosa; experiment: MIC against Gram-negative bacteria: Pseudomonas aeruginosa; details: for MIC against P. aeruginosa / MIC P. aeruginosa: 5×10^5 CFU/mL
Outline: as §1

[4] = tested on: Serratia marcescens; experiment: MIC against Gram-negative bacteria: Serratia marcescens; details: for MIC against S. marcescens / MIC S. marcescens: 5×10^5 CFU/mL
Outline: as §1

[5] = tested on: Klebsiella pneumonia; experiment: MIC against Gram-negative bacteria: Klebsiella pneumonia; details: for MIC against K. pneumonia / MIC K. pneumonia: 5×10^5 CFU/mL
Outline: as §1

[6] = tested on: Aeromonas hydrophila; experiment: MIC against Gram-negative bacteria: Aeromonas hydrophila; details: for MIC against A. hydrophila / MIC A. hydrophila: 5×10^5 CFU/mL
Outline: as §1

[7] = tested on: Moraxella catarrhalis; experiment: MIC against Gram-negative bacteria: Moraxella catarrhalis; details: for MIC against M. catarrhalis / MIC M. catarrhalis: 5×10^5 CFU/mL
Outline: as §1

[8] = tested on: Proteus vulgaris; experiment: MIC against Gram-negative bacteria: Proteus vulgaris; details: for MIC against P. vulgaris / MIC P. vulgaris: 5×10^5 CFU/mL
Outline: as §1

[9] = tested on: Proteus mirabilis; experiment: MIC against Gram-negative bacteria: Proteus mirabilis; details: for MIC against P. mirabilis / MIC P. mirabilis: 5×10^5 CFU/mL
Outline: as §1

[10] = tested on: Enterobacter cloacae; experiment: MIC against Gram-negative bacteria: Enterobacter cloacae; details: for MIC against E. cloacae / MIC E. cloacae: 5×10^5 CFU/mL
Outline: as §1

[11] = tested on: E. coli DH5α; experiment: Antibacterial activity: MIC and growth curve against E. coli DH5α in 96-well plate; details: minimal inhibitory concentration against E. coli DH5α; 96-well plate, 5×10^5 CFU/mL, 37° C., judged after 8 h
Outline: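 Log-phase DH5α (OD600 about 0.5, 37° C, 185 rpm in LB) was pelleted, resuspended in fresh LB and seeded at 5×10^5 CFU/mL with recombinant protein at 50, 25 and 12.5 μg/mL (two-fold series), in triplicate. Plates were shaken at 175 rpm, 37° C, and OD600 was read every 30 min. MIC was the lowest concentration with no growth.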

[12] = Citrobacter diversus, 96-well plate, 37° C., 10 h
[13] = E. coli BL21, 96-well plate, 37° C., 10 h
[14] = Pseudomonas aeruginosa, 96-well plate, 37° C., 10 h
[15] = Serratia marcescens, 96-well plate, 37° C., 10 h
[16] = Klebsiella pneumonia, 96-well plate, 37° C., 10 h
[17] = Aeromonas hydrophila, 96-well plate, 37° C., 10 h
[18] = Moraxella catarrhalis, 96-well plate, 37° C., 10 h
[19] = Proteus vulgaris, 96-well plate, 37° C., 10 h
[20] = Proteus mirabilis, 96-well plate, 37° C., 10 h
[21] = Enterobacter cloacae, 96-well plate, 37° C., 10 h
[22] = 10 h cultivation at 37° C., two-fold serial dilution
[23] = Citrobacter diversus, 10 h cultivation at 37° C.
[24] = E. coli BL21, 10 h cultivation at 37° C.
[25] = Pseudomonas aeruginosa, 10 h cultivation at 37° C.
[26] = Serratia marcescens, 10 h cultivation at 37° C.
[27] = Klebsiella pneumonia, 10 h cultivation at 37° C.
[28] = Aeromonas hydrophila, 10 h cultivation at 37° C.
[29] = Moraxella catarrhalis, 10 h cultivation at 37° C.
[30] = Proteus vulgaris, 10 h cultivation at 37° C.
[31] = Proteus mirabilis, 10 h cultivation at 37° C.
[32] = Enterobacter cloacae, 10 h cultivation at 37° C.

Substance | MIC against C. diversus [1, 12] [µg/mL] | MIC against E. coli BL21 [2, 13] [µg/mL] | MIC against P. aeruginosa [3, 14] [µg/mL] | MIC against S. marcescens [4, 15] [µg/mL] | MIC against K. pneumonia [5, 16] [µg/mL] | MIC against A. hydrophila [6, 17] [µg/mL] | MIC against M. catarrhalis [7, 18] [µg/mL] | MIC against P. vulgaris [8, 19] [µg/mL] | MIC against P. mirabilis [9, 20] [µg/mL] | MIC against E. cloacae [10, 21] [µg/mL] | MIC [11] [µg/mL] | further results
PRT1226 (YTASCQDMSCSKQGECLETIGNYTCSCYPGFYGPECE; listed as Homo sapiens) | 50 | 50 | 25 | 25 | 12.5 | 25 | 12.5 | 12.5 | 50 | 25 | 25 | –
PRT1070 (RPGTCNLQCFNGGSCFLNARRQPKCRCQPRYTGDKCE; listed as Homo sapiens) | – | – | – | – | – | – | – | – | – | – | 25 | MIC C. diversus [1, 22]: 12.5 µg/mL; MIC E. coli BL21 [2, 22]: 12.5 µg/mL; MIC P. aeruginosa [3, 22]: 25 µg/mL; MIC S. marcescens [4, 22]: 12.5 µg/mL; MIC K. pneumonia [5, 22]: 12.5 µg/mL; MIC A. hydrophila [6, 22]: 12.5 µg/mL; MIC M. catarrhalis [7, 22]: 12.5 µg/mL; MIC P. vulgaris [8, 22]: 12.5 µg/mL; MIC P. mirabilis [9, 22]: 12.5 µg/mL; MIC E. cloacae [10, 22]: 25 µg/mL
PRT1204 (DIDECGTGRHSCANDTICFNLDGGYDCRCPHGKNCT; listed as Homo sapiens) | 25 | 25 | 50 | 25 | 25 | 50 | 25 | 50 | 12.5 | 12.5 | 100 | –
PRT556 (CQCSSPGVADDRCDPDTGQCRCRVGFEGATCDRCAPGYFHFPLCQL; listed as Homo sapiens) | – | – | – | – | – | – | – | – | – | – | 25 | MIC against C. diversus ([1]; 96-well plate, 37° C., 10 h): 25 µg/mL; MIC against E. coli BL21 ([2]; 96-well plate, 37° C., 10 h): 50 µg/mL; MIC against P. aeruginosa ([3]; 96-well plate, 37° C., 10 h): 12.5 µg/mL; MIC against S. marcescens ([4]; 96-well plate, 37° C., 10 h): 25 µg/mL; MIC against K. pneumonia ([5]; 96-well plate, 37° C., 10 h): 50 µg/mL; MIC against A. hydrophila ([6]; 96-well plate, 37° C., 10 h): 50 µg/mL; MIC against M. catarrhalis ([7]; 96-well plate, 37° C., 10 h): 12.5 µg/mL; MIC against P. vulgaris ([8]; 96-well plate, 37° C., 10 h): 12.5 µg/mL; MIC against P. mirabilis ([9]; 96-well plate, 37° C., 10 h): 25 µg/mL; MIC against E. cloacae ([10]; 96-well plate, 37° C., 10 h): 12.5 µg/mL
PRT1228 (CPPCPKYASCHNSTHCTCEDGFRARSGRTYFHDSSEKCE; listed as Homo sapiens) | 50 | 25 | 50 | 50 | 25 | 25 | 25 | 25 | 12.5 | 12.5 | 12.5 | –
PRT1474 (IPDQCSPLPCNEDGYMSCKDGKASFTCTCKPGWQGEKCE; listed as Homo sapiens) | – | – | – | – | – | – | – | – | – | – | 50 | MIC against C. diversus [1, 23]: 12.5 µg/mL; MIC against E. coli BL21 [2, 24]: 12.5 µg/mL; MIC against P. aeruginosa [3, 25]: 25 µg/mL; MIC against S. marcescens [4, 26]: 25 µg/mL; MIC against K. pneumonia [5, 27]: 25 µg/mL; MIC against A. hydrophila [6, 28]: 25 µg/mL; MIC against M. catarrhalis [7, 29]: 25 µg/mL; MIC against P. vulgaris [8, 30]: 12.5 µg/mL; MIC against P. mirabilis [9, 31]: 50 µg/mL; MIC against E. cloacae [10, 32]: 50 µg/mL
PRT1432 (PARTCHSPAHSPCHIHAHCLFERNGAVSCQCNVGWAGNGNVCG; listed as Homo sapiens) | – | – | – | – | – | – | – | – | – | – | 25 | MIC against C. diversus [1, 23]: 12.5 µg/mL; MIC against E. coli BL21 [2, 24]: 12.5 µg/mL; MIC against P. aeruginosa [3, 25]: 50 µg/mL; MIC against S. marcescens [4, 26]: 12.5 µg/mL; MIC against K. pneumonia [5, 27]: 12.5 µg/mL; MIC against A. hydrophila [6, 28]: 25 µg/mL; MIC against M. catarrhalis [7, 29]: 25 µg/mL; MIC against P. vulgaris [8, 30]: 25 µg/mL; MIC against P. mirabilis [9, 31]: 50 µg/mL; MIC against E. cloacae [10, 32]: 50 µg/mL
PRT973 (DLPDCSPSSCFNGGTCVDGVNSFSCLCRPGYTGAHCQ; listed as Homo sapiens) | – | – | – | – | – | – | – | – | – | – | 12.5 | MIC ([1]; C. diversus, 10 h cultivation at 37° C.): 50 µg/mL; MIC [2, 24]: 12.5 µg/mL; MIC ([3]; P. aeruginosa, 10 h cultivation at 37° C.): 12.5 µg/mL; MIC ([4]; S. marcescens, 10 h cultivation at 37° C.): 12.5 µg/mL; MIC ([5]; K. pneumonia, 10 h cultivation at 37° C.): 50 µg/mL; MIC ([6]; A. hydrophila, 10 h cultivation at 37° C.): 25 µg/mL; MIC ([7]; M. catarrhalis, 10 h cultivation at 37° C.): 12.5 µg/mL; MIC ([8]; P. vulgaris, 10 h cultivation at 37° C.): 25 µg/mL; MIC ([9]; P. mirabilis, 10 h cultivation at 37° C.): 50 µg/mL; MIC ([10]; E. cloacae, 10 h cultivation at 37° C.): 12.5 µg/mL
PRT1302 (QTSPCDQYECQNGAQCIVVQQEPTCRCPPGFAGPRCE; listed as Homo sapiens) | 50 | 50 | 12.5 | 25 | 50 | 12.5 | 12.5 | 50 | 25 | 25 | 12.5 | –
PRT720 (INECHDPSISGCDHNCTDTLTSFYCSCRPGYKLMSDKRTCV; listed as Homo sapiens) | – | – | – | – | – | – | – | – | – | – | 50 | MIC C. diversus ([1]; 96-well plate, 37° C., 10 h): 25 µg/mL; MIC E. coli BL21 ([2]; 96-well plate, 37° C., 10 h): 25 µg/mL; MIC P. aeruginosa ([3]; 96-well plate, 37° C., 10 h): 12.5 µg/mL; MIC S. marcescens ([4]; 96-well plate, 37° C., 10 h): 50 µg/mL; MIC K. pneumonia ([5]; 96-well plate, 37° C., 10 h): 12.5 µg/mL; MIC A. hydrophila ([6]; 96-well plate, 37° C., 10 h): 12.5 µg/mL; MIC M. catarrhalis ([7]; 96-well plate, 37° C., 10 h): 50 µg/mL; MIC P. vulgaris ([8]; 96-well plate, 37° C., 10 h): 12.5 µg/mL; MIC P. mirabilis ([9]; 96-well plate, 37° C., 10 h): 25 µg/mL; MIC E. cloacae ([10]; 96-well plate, 37° C., 10 h): 50 µg/mL
PRT1294 (DFDDCQDNKCKNGAHCTDAVNGYTCICPEGYSGLFCE; listed as Homo sapiens) | 50 | 12.5 | 50 | 50 | 12.5 | 12.5 | 12.5 | 12.5 | 50 | 50 | 50 | –

Reference: patent US9833497B2, “Human originated EGF domain proteins and use of the same” (CHENGDU SOURCEBIO LIMITED-LIABILITY COMPANY, priority 2013, dated 2017)
